Data taken from ChEMBL document CHEMBL1201862, “PubChem BioAssay data set” (2004).
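Assay format: 96-well plates, 48-hour exposure. The concentration for 50% growth inhibition is given as GI50.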 Active and inactive are the calls of the source. Cut-off read from the data, not from the text of the source: active = GI50 up to about 1.1 µM and inactive = higher.

How the values were obtained:
Assay in all cases: DTP human tumour cell line panel, 48 h
A498 = tested on: A498
HT-29 = tested on: HT-29
SNB-75 = tested on: SNB-75
SF-539 = tested on: SF-539
UO-31 = tested on: UO-31
NCI-H23 = tested on: NCI-H23
BT-549 = tested on: BT-549
MOLT-4 = tested on: MOLT-4
T47D = tested on: T47D
MDA-MB-435 = tested on: MDA-MB-435
786-0 = tested on: 786-0
COLO 205 = tested on: COLO 205
HCC 2998 = tested on: HCC 2998
SK-MEL-2 = tested on: SK-MEL-2
HOP-62 = tested on: HOP-62
M14 = tested on: M14
CCRF-CEM = tested on: CCRF-CEM
ACHN = tested on: ACHN
K562 = tested on: K562
SNB-19 = tested on: SNB-19
HCT-116 = tested on: HCT-116
OVCAR-5 = tested on: OVCAR-5
CAKI-1 = tested on: CAKI-1
RXF 393 = tested on: RXF 393
IGROV-1 = tested on: IGROV-1
NCI/ADR-RES = tested on: NCI/ADR-RES
RPMI-8226 = tested on: RPMI-8226
HL-60 = tested on: HL-60
SR = tested on: SR
U-251 = tested on: U-251
SK-MEL-28 = tested on: SK-MEL-28
UACC-257 = tested on: UACC-257
Hs-578T = tested on: Hs-578T
SK-OV-3 = tested on: SK-OV-3
SF-268 = tested on: SF-268
MDA-MB-231 = tested on: MDA-MB-231
SK-MEL-5 = tested on: SK-MEL-5
LOX IMVI = tested on: LOX IMVI
UACC-62 = tested on: UACC-62
NCI-H460 = tested on: NCI-H460
SN12C = tested on: SN12C
SF-295 = tested on: SF-295
SW-620 = tested on: SW-620
OVCAR-4 = tested on: OVCAR-4
MDA-N = tested on: MDA-N
A549 = tested on: A549
DU-145 = tested on: DU-145
KM12 = tested on: KM12
NCI-H226 = tested on: NCI-H226
MCF7 = tested on: MCF7
HCT-15 = tested on: HCT-15
TK-10 = tested on: TK-10
OVCAR-3 = tested on: OVCAR-3
EKVX = tested on: EKVX
HOP-92 = tested on: HOP-92
OVCAR-8 = tested on: OVCAR-8
Malme-3M = tested on: Malme-3M
NCI-H522 = tested on: NCI-H522
PC-3 = tested on: PC-3

## CCOC(=O)C(NC(=O)Nc1ccc(C)cc1)(OCC)C(F)(F)F (configuration not stated)
A498
  GI50: 53.8 µM (inactive)
HT-29
  GI50: > 100 µM (inactive)
SNB-75
  GI50: > 100 µM (inactive)
SF-539
  GI50: > 100 µM (inactive)
UO-31
  GI50: 54.1 µM (inactive)
NCI-H23
  GI50: > 100 µM (inactive)
BT-549
  GI50: > 100 µM (inactive)
MOLT-4
  GI50: > 100 µM (inactive)
T47D
  GI50: > 100 µM (inactive)
MDA-MB-435
  GI50: > 100 µM (inactive)
786-0
  GI50: > 100 µM (inactive)
COLO 205
  GI50: > 100 µM (inactive)
HCC 2998
  GI50: > 100 µM (inactive)
SK-MEL-2
  GI50: > 100 µM (inactive)
HOP-62
  GI50: 26.5 µM (inactive)
M14
  GI50: > 100 µM (inactive)
CCRF-CEM
  GI50: > 100 µM (inactive)
ACHN
  GI50: 56.5 µM (inactive)
K562
  GI50: > 100 µM (inactive)
SNB-19
  GI50: > 100 µM (inactive)
HCT-116
  GI50: > 100 µM (inactive)
OVCAR-5
  GI50: > 100 µM (inactive)
CAKI-1
  GI50: 1.18 µM (inactive)
RXF 393
  GI50: > 100 µM (inactive)
IGROV-1
  GI50: > 100 µM (inactive)
NCI/ADR-RES
  GI50: 42.3 µM (inactive)
RPMI-8226
  GI50: > 100 µM (inactive)
HL-60
  GI50: 64.4 µM (inactive)
SR
  GI50: 88.9 µM (inactive)
U-251
  GI50: > 100 µM (inactive)
SK-MEL-28
  GI50: > 100 µM (inactive)
UACC-257
  GI50: > 100 µM (inactive)
Hs-578T
  GI50: 71.4 µM (inactive)
SK-OV-3
  GI50: > 100 µM (inactive)
SF-268
  GI50: > 100 µM (inactive)

## CCOP(=O)(OCC)/C(=C\n1c(=S)[nH]c2cc(C)ccc21)C(=O)OC
MDA-MB-231
  GI50: > 100 µM (inactive)
SK-MEL-5
  GI50: > 100 µM (inactive)
A498
  GI50: > 100 µM (inactive)
LOX IMVI
  GI50: > 100 µM (inactive)
UACC-62
  GI50: > 100 µM (inactive)
HT-29
  GI50: > 100 µM (inactive)
SNB-75
  GI50: > 100 µM (inactive)
SF-539
  GI50: > 100 µM (inactive)
UO-31
  GI50: > 100 µM (inactive)
NCI-H23
  GI50: > 100 µM (inactive)
NCI-H460
  GI50: > 100 µM (inactive)
SN12C
  GI50: > 100 µM (inactive)
BT-549
  GI50: > 100 µM (inactive)
MOLT-4
  GI50: > 100 µM (inactive)
SF-295
  GI50: > 100 µM (inactive)
SW-620
  GI50: > 100 µM (inactive)
OVCAR-4
  GI50: > 100 µM (inactive)
MDA-N
  GI50: > 100 µM (inactive)
T47D
  GI50: > 100 µM (inactive)
MDA-MB-435
  GI50: > 100 µM (inactive)
A549
  GI50: > 100 µM (inactive)
786-0
  GI50: > 100 µM (inactive)
COLO 205
  GI50: > 100 µM (inactive)
HCC 2998
  GI50: > 100 µM (inactive)
DU-145
  GI50: > 100 µM (inactive)
SK-MEL-2
  GI50: > 100 µM (inactive)
KM12
  GI50: > 100 µM (inactive)
HOP-62
  GI50: > 100 µM (inactive)
M14
  GI50: > 100 µM (inactive)
NCI-H226
  GI50: > 100 µM (inactive)
MCF7
  GI50: > 100 µM (inactive)
ACHN
  GI50: > 100 µM (inactive)
HCT-15
  GI50: > 100 µM
SNB-19
  GI50: > 100 µM (inactive)
HCT-116
  GI50: > 100 µM (inactive)
OVCAR-5
  GI50: > 100 µM (inactive)
CAKI-1
  GI50: > 100 µM (inactive)
RXF 393
  GI50: > 100 µM (inactive)
IGROV-1
  GI50: > 100 µM (inactive)
NCI/ADR-RES
  GI50: > 100 µM (inactive)
TK-10
  GI50: > 100 µM (inactive)
HL-60
  GI50: 42.6 µM (inactive)
OVCAR-3
  GI50: > 100 µM (inactive)
EKVX
  GI50: 45.8 µM (inactive)
U-251
  GI50: > 100 µM (inactive)
HOP-92
  GI50: > 100 µM (inactive)
OVCAR-8
  GI50: > 100 µM (inactive)
SK-MEL-28
  GI50: > 100 µM (inactive)
UACC-257
  GI50: > 100 µM (inactive)
SK-OV-3
  GI50: > 100 µM (inactive)
SF-268
  GI50: > 100 µM (inactive)

## CCC/C(Cl)=N/OC(NC(=O)OCC)(C(F)(F)F)C(F)(F)F
MDA-MB-231
  GI50: 17.6 µM (inactive)
SK-MEL-5
  GI50: 23.8 µM (inactive)
A498
  GI50: > 100 µM (inactive)
LOX IMVI
  GI50: 17.9 µM (inactive)
UACC-62
  GI50: 48.1 µM (inactive)
HT-29
  GI50: 22.4 µM (inactive)
SNB-75
  GI50: 82.4 µM (inactive)
SF-539
  GI50: 16.7 µM (inactive)
UO-31
  GI50: 19.6 µM (inactive)
NCI-H23
  GI50: 25.1 µM (inactive)
NCI-H460
  GI50: > 100 µM (inactive)
SN12C
  GI50: 16.7 µM (inactive)
MOLT-4
  GI50: 32.5 µM (inactive)
SF-295
  GI50: > 100 µM (inactive)
SW-620
  GI50: 19.8 µM (inactive)
OVCAR-4
  GI50: 17.6 µM (inactive)
MDA-N
  GI50: 20.5 µM (inactive)
T47D
  GI50: 45.4 µM (inactive)
MDA-MB-435
  GI50: 18.6 µM (inactive)
A549
  GI50: > 100 µM (inactive)
786-0
  GI50: 17.4 µM (inactive)
COLO 205
  GI50: 19.8 µM (inactive)
DU-145
  GI50: > 100 µM (inactive)
SK-MEL-2
  GI50: > 100 µM (inactive)
KM12
  GI50: > 100 µM (inactive)
HOP-62
  GI50: > 100 µM (inactive)
M14
  GI50: 17.9 µM (inactive)
NCI-H226
  GI50: > 100 µM (inactive)
MCF7
  GI50: 23.6 µM (inactive)
CCRF-CEM
  GI50: 22.1 µM (inactive)
ACHN
  GI50: 18.3 µM (inactive)
K562
  GI50: 25.6 µM (inactive)
HCT-15
  GI50: 21.6 µM
SNB-19
  GI50: > 100 µM (inactive)
HCT-116
  GI50: 19.4 µM (inactive)
OVCAR-5
  GI50: 16.4 µM (inactive)
CAKI-1
  GI50: 20.6 µM (inactive)
RXF 393
  GI50: 19 µM (inactive)
IGROV-1
  GI50: 16.6 µM (inactive)
Malme-3M
  GI50: 15.4 µM (inactive)
NCI/ADR-RES
  GI50: 34.5 µM (inactive)
RPMI-8226
  GI50: 23.1 µM (inactive)
TK-10
  GI50: 19 µM (inactive)
NCI-H522
  GI50: > 100 µM (inactive)
HL-60
  GI50: 17.4 µM (inactive)
SR
  GI50: 23.1 µM (inactive)
OVCAR-3
  GI50: 15.8 µM (inactive)
EKVX
  GI50: 20.9 µM (inactive)
U-251
  GI50: > 100 µM (inactive)
HOP-92
  GI50: 20.3 µM (inactive)
OVCAR-8
  GI50: 33.9 µM (inactive)
SK-MEL-28
  GI50: 26.5 µM (inactive)
UACC-257
  GI50: 20.6 µM (inactive)
Hs-578T
  GI50: 34.5 µM (inactive)
PC-3
  GI50: 98.9 µM (inactive)
SF-268
  GI50: 19.9 µM (inactive)
